Earlier results, collected in patent publication US20250041461A1, “[177LU] LUTETIUM-PSMA I&T COMPOSITION AND DOSIMETRY, KIT, METHOD OF MAKING, AND METHOD OF USING THEREOF” (Curium US LLC, priority 2023, published 2025).
Read-outs that look alike come from different tables or passages of the source.

Settings: cited from earlier work

O=C([O-])CC[C@H](NC(=O)N[C@@H](CCCCNC(=O)CCCCCCC(=O)NCCCC[C@@H](NC(=O)[C@@H](Cc1ccccc1)NC(=O)[C@@H](Cc1ccc(O)c(I)c1)NC(=O)CC[C@H](C(=O)[O-])N1CCN(CC(=O)[O-])CCN(CC(=O)[O-])CCN(CC(=O)[O-])CC1)C(=O)[O-])C(=O)[O-])C(=O)[O-].[177Lu+3].[H+].[H+].[H+].[H+].[H+] [^177Lu-PSMA I&T, (3S,7S,26R,29R,32R,37R)-29-benzyl-32-(4-hydroxy-3-iodobenzyl)-5,13,20,28,31,34-hexaoxo-37-(4,7,10-tris(carboxymethyl)-1,4,7,10-tetraazacyclododecan-1-yl)-4,6,12,21,27,30,33-heptaazaheptatriacontane-1,3,7,26,37-pentacarboxylic acid; lutetium-177 (III)]
Absorbed Dose, Kidneys, Mean ± SD (First cycle (n = 15)): 0.71 ± 0.25 Gy/GBq
Absorbed Dose, Kidneys, Range (First cycle (n = 15)): 0.33-1.22 Gy/GBq
Absorbed Dose, Lacrimal glands, Mean ± SD (First cycle (n = 15)): 3.8 ± 1.5 Gy/GBq
Absorbed Dose, Lacrimal glands, Range (First cycle (n = 15)): 1.68-7.03 Gy/GBq
Absorbed Dose, Liver, Mean ± SD (First cycle (n = 15)): 0.12 ± 0.07 Gy/GBq
Absorbed Dose, Liver, Range (First cycle (n = 15)): 0.05-0.26 Gy/GBq
Absorbed Dose, Parotid glands, Mean ± SD (First cycle (n = 15)): 0.56 Gy/GBq
Absorbed Dose, Parotid glands, Range (First cycle (n = 15)): 0.25-0.84 Gy/GBq
Absorbed Dose, Submandibular glands, Mean ± SD (First cycle (n = 15)): 0.54 ± 0.29 Gy/GBq
Absorbed Dose, Submandibular glands, Range (First cycle (n = 15)): 0.25-1.35 Gy/GBq
Effective Dose, Whole body, Mean ± SD (First cycle (n = 15)): 0.05 Sv/GBq
Effective Dose, Whole body, Range (First cycle (n = 15)): 0.02-0.11 Sv/GBq
Absorbed Dose for Tumor Lesions, Lung metastases, Mean ± SD (First cycle, n 1): 2.7 Gy/GBq
Absorbed Dose for Tumor Lesions, Liver metastases, Mean ± SD (First cycle, n 2): 1.7 Gy/GBq
Absorbed Dose for Tumor Lesions, Liver metastases, Range (First cycle, n 2): 0.85-2.59 Gy/GBq
Absorbed Dose for Tumor Lesions, Lymph node metastases, Mean ± SD (First cycle, n 5): 2.6 ± 0.89 Gy/GBq
Absorbed Dose for Tumor Lesions, Lymph node metastases, Range (First cycle, n 5): 1.63-3.76 Gy/GBq
Absorbed Dose for Tumor Lesions, Bone metastases, Mean ± SD (First cycle, n 33): 3.8 ± 3.1 Gy/GBq
Absorbed Dose for Tumor Lesions, Bone metastases, Range (First cycle, n 33): 0.22-12.03 Gy/GBq
Absorbed Dose for Tumor Lesions, All metastases, Mean ± SD (First cycle, n 41): 3.5 ± 2.9 Gy/GBq
Absorbed Dose for Tumor Lesions, All metastases, Range (First cycle, n 41): 0.22-12.03 Gy/GBq
Absorbed Dose for Tumor Lesions, Liver metastases, Mean ± SD (Fourth cycle, n 2): 1.13 Gy/GBq
Absorbed Dose for Tumor Lesions, Liver metastases, Range (Fourth cycle, n 2): 0.74-1.51 Gy/GBq
Absorbed Dose for Tumor Lesions, Bone metastases, Mean ± SD (Fourth cycle, n 10): 2.7 ± 2.3 Gy/GBq
Absorbed Dose for Tumor Lesions, Bone metastases, Range (Fourth cycle, n 10): 1.04-7.60 Gy/GBq
Absorbed Dose for Tumor Lesions, All metastases, Mean ± SD (Fourth cycle, n 12): 2.4 ± 2.2 Gy/GBq
Absorbed Dose for Tumor Lesions, All metastases, Range (Fourth cycle, n 12): 0.74-7.60 Gy/GBq
Absorbed Dose, Kidneys, Mean ± SD (Fourth cycle): 0.69 ± 0.18 Gy/GBq
Absorbed Dose, Kidneys, Range (Fourth cycle): 0.45-0.95 Gy/GBq
Absorbed Dose, Lacrimal glands, Mean ± SD (Fourth cycle): 3.4 ± 1.7 Gy/GBq
Absorbed Dose, Lacrimal glands, Range (Fourth cycle): 1.75-5.35 Gy/GBq
Absorbed Dose, Liver, Mean ± SD (Fourth cycle): 0.11 ± 0.04 Gy/GBq
Absorbed Dose, Liver, Range (Fourth cycle): 0.07-0.17 Gy/GBq
Absorbed Dose, Parotid glands, Mean ± SD (Fourth cycle): 0.50 Gy/GBq
Absorbed Dose, Parotid glands, Range (Fourth cycle): 0.32-0.58 Gy/GBq
Absorbed Dose, Submandibular glands, Mean ± SD (Fourth cycle): 0.66 ± 0.53 Gy/GBq
Absorbed Dose, Submandibular glands, Range (Fourth cycle): 0.24-1.58 Gy/GBq
Effective Dose, Whole body, Mean ± SD (Fourth cycle): 0.05 Sv/GBq
Effective Dose, Whole body, Range (Fourth cycle): 0.03-0.11 Sv/GBq
Absorbed Dose, Kidneys, Mean ± SD (Overall (n = 34)): 0.72 ± 0.21 Gy/GBq
Absorbed Dose, Kidneys, Range (Overall (n = 34)): 0.33-1.22 Gy/GBq
Absorbed Dose, Lacrimal glands, Mean ± SD (Overall (n = 34)): 3.8 ± 1.4 Gy/GBq
Absorbed Dose, Lacrimal glands, Range (Overall (n = 34)): 1.68-7.03 Gy/GBq
Absorbed Dose, Liver, Mean ± SD (Overall (n = 34)): 0.12 ± 0.06 Gy/GBq
Absorbed Dose, Liver, Range (Overall (n = 34)): 0.05-0.26 Gy/GBq
Absorbed Dose, Parotid glands, Mean ± SD (Overall (n = 34)): 0.55 Gy/GBq
Absorbed Dose, Parotid glands, Range (Overall (n = 34)): 0.25-0.84 Gy/GBq
Absorbed Dose, Submandibular glands, Mean ± SD (Overall (n = 34)): 0.64 ± 0.40 Gy/GBq
Absorbed Dose, Submandibular glands, Range (Overall (n = 34)): 0.24-1.70 Gy/GBq
Effective Dose, Whole body, Mean ± SD (Overall (n = 34)): 0.06 Sv/GBq
Effective Dose, Whole body, Range (Overall (n = 34)): 0.02-0.11 Sv/GBq
Absorbed Dose for Tumor Lesions, Lung metastases, Mean ± SD (Overall, n 3): 1.75 ± 0.92 Gy/GBq
Absorbed Dose for Tumor Lesions, Lung metastases, Range (Overall, n 3): 0.94-2.68 Gy/GBq
Absorbed Dose for Tumor Lesions, Liver metastases, Mean ± SD (Overall, n 8): 1.2 ± 0.67 Gy/GBq
Absorbed Dose for Tumor Lesions, Liver metastases, Range (Overall, n 8): 0.47-2.59 Gy/GBq
Absorbed Dose for Tumor Lesions, Lymph node metastases, Mean ± SD (Overall, n 8): 3.2 ± 2.2 Gy/GBq
Absorbed Dose for Tumor Lesions, Lymph node metastases, Range (Overall, n 8): 1.63-8.46 Gy/GBq
Absorbed Dose for Tumor Lesions, Bone metastases, Mean ± SD (Overall, n 74): 3.4 ± 2.7 Gy/GBq
Absorbed Dose for Tumor Lesions, Bone metastases, Range (Overall, n 74): 0.22-12.03 Gy/GBq
Absorbed Dose for Tumor Lesions, All metastases, Mean ± SD (Overall, n 93): 3.2 ± 2.6 Gy/GBq
Absorbed Dose for Tumor Lesions, All metastases, Range (Overall, n 93): 0.22-12.03 Gy/GBq
Absorbed Dose for Tumor Lesions, Lung metastases, Mean ± SD (Second cycle, n 1): 1.3 Gy/GBq
Absorbed Dose for Tumor Lesions, Liver metastases, Mean ± SD (Second cycle, n 2): 0.94 Gy/GBq
Absorbed Dose for Tumor Lesions, Liver metastases, Range (Second cycle, n 2): 0.70-1.17 Gy/GBq
Absorbed Dose for Tumor Lesions, Lymph node metastases, Mean ± SD (Second cycle, n 2): 5.2 Gy/GBq
Absorbed Dose for Tumor Lesions, Lymph node metastases, Range (Second cycle, n 2): 1.98-8.46 Gy/GBq
Absorbed Dose for Tumor Lesions, Bone metastases, Mean ± SD (Second cycle, n 21): 3.4 ± 2.4 Gy/GBq
Absorbed Dose for Tumor Lesions, Bone metastases, Range (Second cycle, n 21): 1.03-9.59 Gy/GBq
Absorbed Dose for Tumor Lesions, All metastases, Mean ± SD (Second cycle, n 26): 3.3 ± 2.5 Gy/GBq
Absorbed Dose for Tumor Lesions, All metastases, Range (Second cycle, n 26): 0.70-8.46 Gy/GBq
Absorbed Dose, Kidneys, Mean ± SD (Second cycle): 0.75 ± 0.19 Gy/GBq
Absorbed Dose, Kidneys, Range (Second cycle): 0.44-1.01 Gy/GBq
Absorbed Dose, Lacrimal glands, Mean ± SD (Second cycle): 4.1 ± 1.1 Gy/GBq
Absorbed Dose, Lacrimal glands, Range (Second cycle): 2.44-5.56 Gy/GBq
Absorbed Dose, Liver, Mean ± SD (Second cycle): 0.13 ± 0.05 Gy/GBq
Absorbed Dose, Liver, Range (Second cycle): 0.08-0.21 Gy/GBq
Absorbed Dose, Parotid glands, Mean ± SD (Second cycle): 0.59 Gy/GBq
Absorbed Dose, Parotid glands, Range (Second cycle): 0.47-0.80 Gy/GBq
Absorbed Dose, Submandibular glands, Mean ± SD (Second cycle): 0.71 ± 0.42 Gy/GBq
Absorbed Dose, Submandibular glands, Range (Second cycle): 0.40-1.70 Gy/GBq
Effective Dose, Whole body, Mean ± SD (Second cycle): 0.06 Sv/GBq
